Measurements taken from US10350334B2, “Catheter locking solution having antimicrobial and anticoagulation properties” (Becton, Dickinson and Company, priority 2009, dated 2019).

Test system: Staphylococcus epidermidis
Assay: Planktonic cell tests
Type: cell-based
Details: 12 mg/mL, 30 and 60 minutes
Method: In the planktonic cell tests, bupivacine was tested against non-adhering coagulase negative S. epidermidis, which is the bacterial species most prominent in the pathogenesis of CR-BSI. The planktonic cell experiments were performed by the following procedures. First, bacterial suspensions were prepared. Particularly, using BD BBL™ Qualiswab™, S. epidermidis was plated on a Tryptic Soy Broth (TSB) Petri Dish and grown overnight at 37° C. Using a sterile loop, a colony of S. epidermidis was picked up from the TSB Petri Dish and placed into a sterile flask containing 25 mL of sterile TSB media. The flask was then placed in a 37° C. shaking incubator and was shaken at 150 RPM overnight. The next day, 15 mL of the prepared bacterial suspension was placed into an autoclaved centrifuge tube and centrifuged at 10,000 RPM for 10 minutes using a Sorval Centrifuge. The bacteria from the bacterial suspension were rinsed in 0.9% saline by discarding the liquid media (after centrifugation step) and by resuspending the microbial pellet in 20 mL of sterile 0.9% saline. The bacteria were centrifuged and rinsed twice more, for a total of three saline rinses. […]
Bulk concentrations of the bupivacaine and/or vancomyacin (as noted in FIG. 1) were prepared in separate beakers and were filter sterilized. […] Samples were also assessed at time 0, in which there was no exposure to antimicrobials. […]

With `CCCCN1CCCCC1C(=O)Nc1c(C)cccc1C.Cl` (stereo not shown) [Bupivacaine, Bupivacaine HCl] the “antimicrobial effect against planktonic Staphylococcus epidermidis” value was “significant antimicrobial effect”.
